Structures are written as SMILES. A value given as a limit tells only on which side of the number the result lay.

The target in this assay is T1, human IDO1 (Homo sapiens, UniProt P14902).
T1 construct: expressed in transfected cells
T1 sequence (P14902 whole entry): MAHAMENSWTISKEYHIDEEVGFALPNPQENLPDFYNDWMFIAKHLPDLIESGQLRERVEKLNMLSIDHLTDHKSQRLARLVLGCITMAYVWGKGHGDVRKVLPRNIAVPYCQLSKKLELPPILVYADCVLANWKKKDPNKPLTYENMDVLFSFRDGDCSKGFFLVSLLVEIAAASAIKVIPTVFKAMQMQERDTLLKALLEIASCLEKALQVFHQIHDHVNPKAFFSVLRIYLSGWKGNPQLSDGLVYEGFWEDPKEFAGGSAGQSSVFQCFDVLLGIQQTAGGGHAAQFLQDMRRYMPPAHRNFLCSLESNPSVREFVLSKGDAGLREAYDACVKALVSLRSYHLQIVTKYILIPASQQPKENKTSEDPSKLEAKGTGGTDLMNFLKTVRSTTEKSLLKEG
The experiment in a line: HEK Human IDO-1 inhibition assay (kynurenine readout, Ehrlich reagent, absorbance 490 nm). Type of assay: cell-based. Conditions: human IDO1/HEK293 cells, incubated 20 hours with compound; 500 nM reference standard = 100% inhibition. An outline of the steps:
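HEK293 cells stably expressing human IDO1, treated with compound for 20 h at 37 °C in phenol red-free RPMI/10% FBS. Kynurenine detected after TCA (0.2% final, 50 °C, 30 min) by Ehrlich reagent absorbance at 490 nm; IC50 normalised to 500 nM reference standard (100%) and DMSO (0%).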
In general, IC50 refers to the concentration needed to halve the response being measured. As to `CC(C)CN(c1c(F)cc(OCC(=O)NS(=O)(=O)C2CC2)cc1NC(=O)Nc1ccc(Cl)cc1F)C1CCCCC1` [Example 105, 2-(3-(3-(4-chloro-2-fluorophenyl)ureido)-4-(cyclohexyl(isobutyl)amino)-5-fluorophenoxy)-N-(cyclopropylsulfonyl)acetamide], the IC50 is less than 5 nM.
The same measure for `CC(C)CN(c1c(F)cc(OCC(=O)O)cc1NC(=O)Nc1cc(F)ccc1F)C1CCCCC1` [Example 106, 2-(4-(cyclohexyl(isobutyl)amino)-3-(3-(2,5-difluorophenyl)ureido)-5-fluorophenoxy)acetic acid]: less than 5 nM.
The same measure for `CC(C)CN(c1ccc(OCC(=O)O)c(F)c1NC(=O)Nc1ccc(Cl)cc1F)C1CCCCC1` [Example 107, 2-(3-(3-(4-chloro-2-fluorophenyl)ureido)-4-(cyclohexyl(isobutyl)amino)-2-fluorophenoxy)acetic acid]: no less than 100 nM; for `CC(C)CN(c1c(C#N)cc(OCC(=O)O)cc1NC(=O)Nc1ccc(Cl)cc1F)C1CCCCC1` [Example 108, 2-(3-(3-(4-chloro-2-fluorophenyl)ureido)-5-cyano-4-(cyclohexyl(isobutyl)amino)phenoxy)acetic acid]: less than 100 nM; for `Cc1ccc(NC(=O)Nc2cc(OCC(=O)O)ccc2N(CC(C)C)C2CCCCC2)cc1` [Example 109, 2-(4-(cyclohexyl(isobutyl)amino)-3-(3-(p-tolyl)ureido)phenoxy)acetic acid]: less than 100 nM.
For the compound `CC(C)CN(c1ccc(OCC(=O)O)cc1NC(=O)Cc1ccc(Cl)cc1F)C1CCCCC1` [Example 110, 2-(3-(2-(4-chloro-2-fluorophenyl)acetamido)-4-(cyclohexyl(isobutyl)amino)phenoxy)acetic acid], the IC50 is less than 100 nM.
As for `Cc1cnc(NC(=O)COc2ccc(N(CC(C)C)C3CCCCC3)c(NC(=O)Nc3ccc(Cl)cc3F)c2)s1` [Example 111, 2-(3-(3-(4-chloro-2-fluorophenyl)ureido)-4-(cyclohexyl(isobutyl)amino)phenoxy)-N-(5-methylthiazol-2-yl)acetamide], the IC50 was no less than 100 nM.
In the case of `Cc1ccc(NC(=O)Nc2cc(OCC(=O)O)ccc2N(CC(C)C)CC(C)C)cc1` [Example 112, 2-(4-(diisobutylamino)-3-(3-(p-tolyl)ureido)phenoxy)acetic acid], the IC50 was no less than 100 nM.
With `C=C(C)CN(CCCC(F)(F)F)c1cc(F)c(OCC(=O)O)cc1NC(=O)Nc1ccc(Cl)cc1F` [Example 113, 2-(5-(3-(4-chloro-2-fluorophenyl)ureido)-2-fluoro-4-((2-methylallyl)(4,4,4-trifluorobutyl)amino)phenoxy)acetic acid] the figure was less than 5 nM; with `Cc1cc(NC(=O)Nc2cc(OCC(=O)O)c(F)cc2N(CC(C)C)C2CCCCC2)on1` [Example 114, 2-(4-(cyclohexyl(isobutyl)amino)-2-fluoro-5-(3-(3-methylisoxazol-5-yl)ureido)phenoxy)acetic acid], no less than 100 nM.
The same measure for `CC(C)CN(c1cc(F)c(OCC(=O)O)cc1NC(=O)Nc1ccc(Cl)cc1F)C1CCCCC1` [Example 115, 2-(5-(3-(4-chloro-2-fluorophenyl)ureido)-4-(cyclohexyl(isobutyl)amino)-2-fluorophenoxy)acetic acid]: less than 5 nM.
On to `COCCN(c1ccc(OCC(=O)O)cc1NC(=O)Nc1ccc(Cl)cc1F)C1CCCCC1` [Example 116, 2-(3-(3-(4-chloro-2-fluorophenyl)ureido)-4-(cyclohexyl(2-methoxyethyl)amino)phenoxy)acetic acid], for which the IC50 was less than 100 nM.
As to `COCCN(c1ccc(OCC(=O)O)cc1NC(=O)Nc1ccc(F)cc1F)C1CCCCC1` [Example 117, 2-(4-(cyclohexyl(2-methoxyethyl)amino)-3-(3-(2,4-difluorophenyl)ureido)phenoxy)acetic acid], the IC50 is no less than 100 nM.
The same measure for `O=C(O)COc1ccc(N(CC2CC2)C2CCCCC2)c(NC(=O)Nc2ccc(Cl)cc2F)c1` [Example 118, 2-(3-(3-(4-chloro-2-fluorophenyl)ureido)-4-(cyclohexyl(cyclopropylmethyl)amino)phenoxy)acetic acid]: less than 100 nM.
The same measure for `CC(C)CN(c1cc(Cl)c(OCC(=O)O)cc1NC(=O)Nc1ccc(Cl)cc1F)C1CCCCC1` [Example 119, 2-(2-chloro-5-(3-(4-chloro-2-fluorophenyl)ureido)-4-(cyclohexyl(isobutyl)amino)phenoxy)acetic acid]: less than 100 nM; for `C=C(C)CN(CCCC(F)(F)F)c1cc(F)c(OCC(=O)O)cc1NC(=O)Nc1ccc(C)cc1` [Example 120]: less than 100 nM.
The same measure for `C=C(C)CN(CCCC(F)(F)F)c1cc(F)c(OCC(=O)O)cc1NC(=O)Nc1cc(C)no1` [Example 121, 2-(2-fluoro-4-((2-methylallyl)(4,4,4-trifluorobutyl)amino)-5-(3-(3-methylisoxazol-5-yl)ureido)phenoxy)acetic acid]: less than 100 nM; for `Cc1ccc(NC(=O)Nc2cc(OCC(=O)O)c(Cl)cc2N(CC(C)C)C2CCCCC2)cc1` [Example 122, 2-(2-chloro-4-(cyclohexyl(isobutyl)amino)-5-(3-(p-tolyl)ureido)phenoxy)acetic acid]: no less than 100 nM.
Take `CC(C)CN(c1cc(F)c(OCC(=O)O)cc1NC(=O)Nc1ccccc1Cl)C1CCCCC1` [Example 123, 2-(5-(3-(2-chlorophenyl)ureido)-4-(cyclohexyl(isobutyl)amino)-2-fluorophenoxy)acetic acid]: the IC50 was no less than 100 nM.
Take `CC(C)CN(c1cc(F)c(OCC(=O)O)cc1NC(=O)Nc1ccc(F)cc1F)C1CCCCC1` [Example 124, 2-(4-(cyclohexyl(isobutyl)amino)-5-(3-(2,4-difluorophenyl)ureido)-2-fluorophenoxy)acetic acid]: the IC50 was less than 100 nM.
The same measure for `CC(C)CN(c1cc(F)c(OCC(=O)O)cc1NC(=O)Nc1ccc(Br)cc1F)C1CCCCC1` [Example 125, 2-(5-(3-(4-bromo-2-fluorophenyl)ureido)-4-(cyclohexyl(isobutyl)amino)-2-fluorophenoxy)acetic acid]: less than 5 nM.
Turning to `CC(C)CN(c1cc(F)c(OCC(=O)O)cc1NC(=O)Nc1cc(F)ccc1F)C1CCCCC1` [Example 126, 2-(4-(cyclohexyl(isobutyl)amino)-5-(3-(2,5-difluorophenyl)ureido)-2-fluorophenoxy)acetic acid], the IC50 was less than 5 nM.
The same measure for `CC(C)CN(c1cc(F)c(OCC(=O)O)cc1NC(=O)Nc1ccc(OC(F)(F)F)cc1)C1CCCCC1` [Example 127, 2-(4-(cyclohexyl(isobutyl)amino)-2-fluoro-5-(3-(4-(trifluoromethoxy)phenyl)ureido)phenoxy)acetic acid]: less than 100 nM; for `CC(C)CN(c1cc(F)c(OCC(=O)O)cc1NC(=O)Nc1ccc(C#N)nc1)C1CCCCC1` [Example 128, 2-(5-(3-(6-cyanopyridin-3-yl)ureido)-4-(cyclohexyl(isobutyl)amino)-2-fluorophenoxy)acetic acid]: no less than 100 nM.
For the compound `CC(C)CN(c1cc(F)c(OCC(=O)O)cc1NC(=O)Nc1ccccc1F)C1CCCCC1` [Example 129], the IC50 was less than 100 nM.
In the case of `O=C(O)COc1ccc(N(CC2CC2)C2CCCCC2)c(NC(=O)Nc2cc(F)ccc2F)c1` [Example 130], the IC50 was less than 100 nM.
With `Cc1ccc(NC(=O)Nc2cc(OCC(=O)O)ccc2N(CC2CC2)C2CCCCC2)cc1` [Example 131, 2-(4-(cyclohexyl(cyclopropylmethyl)amino)-3-(3-(p-tolyl)ureido)phenoxy)acetic acid] the figure was no less than 100 nM; with `CC(C)CN(c1cc(F)c(OCC(=O)O)cc1NC(=O)Cc1ccc(Cl)cc1F)C1CCCCC1` [Example 133, 2-(5-(2-(4-chloro-2-fluorophenyl)acetamido)-4-(cyclohexyl(isobutyl)amino)-2-fluorophenoxy)acetic acid], less than 100 nM; with `CC(C)CN(c1ccc(OCC(=O)NCC(F)(F)F)cc1NC(=O)Nc1ccc(Cl)cc1F)C1CCCCC1` [Example 135, 2-(3-(3-(4-chloro-2-fluorophenyl)ureido)-4-(cyclohexyl(isobutyl)amino)phenoxy)-N-(2,2,2-trifluoroethyl)acetamide], no less than 100 nM.
With `C=C(C)CN(c1ccc(OCC(=O)O)cc1NC(=O)Nc1ccc(Cl)cc1F)C1CCOCC1` [Example 137, 2-(3-(3-(4-chloro-2-fluorophenyl)ureido)-4-((2-methylallyl)(tetrahydro-2H-pyran-4-yl)amino)phenoxy)acetic acid] the figure was less than 100 nM; with `C=C(C)CN(c1ccc(OC(C)C(=O)O)cc1NC(=O)Nc1ccc(Cl)cc1F)C1CCOCC1` (centres unmarked) [Example 138, 2-(3-(3-(4-chloro-2-fluorophenyl)ureido)-4-((2-methylallyl)(tetrahydro-2H-pyran-4-yl)amino)phenoxy)propanoic acid], less than 100 nM.
For `C=C(C)CN(c1ccc(OCC(=O)O)cc1NC(=O)Nc1ccc(Cl)cc1F)C1COC1` [Example 141, 2-(3-(3-(4-chloro-2-fluorophenyl)ureido)-4-((2-methylallyl)(oxetan-3-yl)amino)phenoxy)acetic acid], the IC50 was no less than 100 nM.
With `C=C(C)CN1CCC(N(CC(=C)C)c2ccc(OCC(=O)O)cc2NC(=O)Nc2ccc(Cl)cc2F)CC1` [Example 142, 2-(3-(3-(4-chloro-2-fluorophenyl)ureido)-4-((2-methylallyl)(1-(2-methylallyl)piperidin-4-yl)amino)phenoxy)acetic acid] the figure was less than 100 nM.
As for `CC(C)CN(c1ccc(OCC(=O)O)cc1NC(=O)Nc1ccc(Cl)cc1F)C1CCOC1` (centres unmarked) [Example 144, 2-(3-(3-(4-chloro-2-fluorophenyl)ureido)-4-(isobutyl(tetrahydrofuran-3-yl)amino)phenoxy)acetic acid], the IC50 is no less than 100 nM.
With `CC(C)CN(c1ccc(OC(C)C(=O)O)cc1NC(=O)Nc1ccc(Cl)cc1F)C1CCOC1` (centres unmarked) [Example 145, 2-(3-(3-(4-chloro-2-fluorophenyl)ureido)-4-(isobutyl(tetrahydrofuran-3-yl)amino)phenoxy)propanoic acid] the figure was less than 100 nM.

Source of the values: US10689331B2, “IDO inhibitors” (Bristol-Myers Squibb Company, priority 2015, dated 2020).
